# Laboratory results: patent US12077503B2, “Substituted cyclic amides and their use as herbicides” (FMC CORPORATION, priority 2015, dated 2024)
# Assays:
# Type in all cases: in vivo
# [1] = tested on: barnyardgrass (Echinochloa crus-galli); assay: Test G Pre-Emergence Protocol; conditions: Echinochloa crus-galli, pre-emergence, 312 h, evaluated after 13 days; for pest or weed control at 15.625 g/ha: 15.625 g ai/ha, read-out: Barnyard grass damage rating (100=total damage to plant; 0=no damage to plant); for pest or weed control at 62.5 g/ha: 62.5 g ai/ha, 100=total damage to plant, 0=no damage to plant, read-out: plant damage rating, Barnyardgrass; for pest or weed control at 250 g/ha: 250 g ai/ha, read-out: Barnyardgrass damage rating (100=total damage to plant; 0=no damage to plant)
# Procedure, shortened: (§1)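 Scores are visual damage ratings from 0 (no damage) to 100 (total plant kill), taken 13 days after treatment. Compound was sprayed one day post-sowing at 15.625, 62.5 or 250 g/ha in 50:50 acetone/water with 0.5% Tween 20.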
# [2] = tested on: corn (Zea mays); assay: Test G Pre-Emergence Protocol; conditions: Zea mays, pre-emergence, 312 h, evaluated after 13 days; for plant injury at 15.625 g/ha: 15.625 g ai/ha; for plant injury at 15.625 g/ha / plant injury at 250 g/ha: read-out: Corn damage rating (100=total damage to plant; 0=no damage to plant); for plant injury at 62.5 g/ha: 62.5 g ai/ha, 100=total damage to plant, 0=no damage to plant, read-out: plant damage rating, Corn; for plant injury at 250 g/ha: 250 g ai/ha
# Procedure, shortened: as §1
# [3] = tested on: giant foxtail (Setaria faberi); assay: Test G Pre-Emergence Protocol; conditions: Setaria faberi, pre-emergence, 312 h, evaluated after 13 days; for pest or weed control at 15.625 g/ha: 15.625 g ai/ha; for pest or weed control at 15.625 g/ha / pest or weed control at 250 g/ha: read-out: Foxtail, Giant damage rating (100=total damage to plant; 0=no damage to plant); for pest or weed control at 62.5 g/ha: 62.5 g ai/ha, 100=total damage to plant, 0=no damage to plant, read-out: plant damage rating, Foxtail, Giant; for pest or weed control at 250 g/ha: 250 g ai/ha
# Procedure, shortened: as §1
# [4] = tested on: ivy-leaved morning glory (Ipomoea hederacea); assay: Test G Pre-Emergence Protocol; conditions: Ipomoea, pre-emergence, 312 h, evaluated after 13 days; for pest or weed control at 15.625 g/ha: 15.625 g ai/ha, read-out: Morning-glory, Ivy-leaved damage rating (100=total damage to plant; 0=no damage to plant); for pest or weed control at 62.5 g/ha: 62.5 g ai/ha, 100=total damage to plant, 0=no damage to plant, read-out: plant damage rating, Morningglory, Ivy-leaved; for pest or weed control at 250 g/ha: 250 g ai/ha, read-out: Morningglory, Ivy-leaved damage rating (100=total damage to plant; 0=no damage to plant)
# Procedure, shortened: as §1
# [5] = tested on: redroot pigweed (Amaranthus retroflexus); assay: Test G Pre-Emergence Protocol; conditions: Amaranthus retroflexus, pre-emergence, 312 h, evaluated after 13 days; for pest or weed control at 15.625 g/ha: 15.625 g ai/ha; for pest or weed control at 15.625 g/ha / pest or weed control at 250 g/ha: read-out: Pigweed, Redroot damage rating (100=total damage to plant; 0=no damage to plant); for pest or weed control at 62.5 g/ha: 62.5 g ai/ha, 100=total damage to plant, 0=no damage to plant, read-out: plant damage rating, Pigweed, Redroot; for pest or weed control at 250 g/ha: 250 g ai/ha
# Procedure, shortened: as §1
# [6] = tested on: velvetleaf (Abutilon theophrasti); assay: Test G Pre-Emergence Protocol; conditions: Abutilon theophrasti, pre-emergence, 312 h, evaluated after 13 days; for pest or weed control at 15.625 g/ha: 15.625 g ai/ha; for pest or weed control at 15.625 g/ha / pest or weed control at 250 g/ha: read-out: Velvetleaf damage rating (100=total damage to plant; 0=no damage to plant); for pest or weed control at 62.5 g/ha: 62.5 g ai/ha, 100=total damage to plant, 0=no damage to plant, read-out: plant damage rating, Velvetleaf; for pest or weed control at 250 g/ha: 250 g ai/ha
# Procedure, shortened: as §1
# [7] = tested on: barnyardgrass (Echinochloa crus-galli); assay: Test G Post-Emergence Protocol; conditions: Echinochloa crus-galli, post-emergence, 312 h; for pest or weed control at 15.625 g/ha: 15.625 g ai/ha, evaluated after 13 days (100=total damage to plant; 0=no damage to plant), read-out: Barnyardgrass damage rating; for pest or weed control at 62.5 g/ha: 62.5 g ai/ha, read-out: Barnyardgrass damage rating (100=total damage to plant; 0=no damage to plant); for pest or weed control at 62.5 g/ha / pest or weed control at 250 g/ha: evaluated after 13 days; for pest or weed control at 250 g/ha: 250 g ai/ha, read-out: damage to plant, Barnyardgrass (100=total damage to plant; 0=no damage to plant)
# Procedure, shortened: (§2)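 Values are percent visual injury at 13 days after treatment (0 none, 100 total). Treatment was a post-emergence spray at 15.625, 62.5 or 250 g/ha on 8-day-old pot plants kept at 24/16 °C.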
# [8] = tested on: corn (Zea mays); assay: Test G Post-Emergence Protocol; conditions: Zea mays, post-emergence, 312 h; for plant injury at 15.625 g/ha: 15.625 g ai/ha, evaluated after 13 days (100=total damage to plant; 0=no damage to plant), read-out: Corn damage rating; for plant injury at 62.5 g/ha: 62.5 g ai/ha, read-out: Corn damage rating (100=total damage to plant; 0=no damage to plant); for plant injury at 62.5 g/ha / plant injury at 250 g/ha: evaluated after 13 days; for plant injury at 250 g/ha: 250 g ai/ha, read-out: damage to plant, Corn (100=total damage to plant; 0=no damage to plant)
# Procedure, shortened: as §2
# [9] = tested on: giant foxtail (Setaria faberi); assay: Test G Post-Emergence Protocol; conditions: Setaria faberi, post-emergence, 312 h; for pest or weed control at 15.625 g/ha: 15.625 g ai/ha, evaluated after 13 days (100=total damage to plant; 0=no damage to plant), read-out: Foxtail, Giant damage rating; for pest or weed control at 62.5 g/ha: 62.5 g ai/ha, read-out: Foxtail, Giant damage rating (100=total damage to plant; 0=no damage to plant); for pest or weed control at 62.5 g/ha / pest or weed control at 250 g/ha: evaluated after 13 days; for pest or weed control at 250 g/ha: 250 g ai/ha, read-out: damage to plant, Foxtail, Giant (100=total damage to plant; 0=no damage to plant)
# Procedure, shortened: as §2
# [10] = tested on: ivy-leaved morning glory (Ipomoea hederacea); assay: Test G Post-Emergence Protocol; conditions: Ipomoea, post-emergence, 312 h; for pest or weed control at 15.625 g/ha: 15.625 g ai/ha, evaluated after 13 days (100=total damage to plant; 0=no damage to plant), read-out: Morningglory, Ivy-leaved damage rating; for pest or weed control at 62.5 g/ha: 62.5 g ai/ha, read-out: Morningglory, Ivy-leaved damage rating (100=total damage to plant; 0=no damage to plant); for pest or weed control at 62.5 g/ha / pest or weed control at 250 g/ha: evaluated after 13 days; for pest or weed control at 250 g/ha: 250 g ai/ha, read-out: damage to plant, Morningglory, Ivy-leaved (100=total damage to plant; 0=no damage to plant)
# Procedure, shortened: as §2
# [11] = tested on: redroot pigweed (Amaranthus retroflexus); assay: Test G Post-Emergence Protocol; conditions: Amaranthus retroflexus, post-emergence, 312 h; for pest or weed control at 15.625 g/ha: 15.625 g ai/ha, evaluated after 13 days (100=total damage to plant; 0=no damage to plant), read-out: Pigweed, Redroot damage rating; for pest or weed control at 62.5 g/ha: 62.5 g ai/ha, read-out: Pigweed, Redroot damage rating (100=total damage to plant; 0=no damage to plant); for pest or weed control at 62.5 g/ha / pest or weed control at 250 g/ha: evaluated after 13 days; for pest or weed control at 250 g/ha: 250 g ai/ha, read-out: damage to plant, Pigweed, Redroot (100=total damage to plant; 0=no damage to plant)
# Procedure, shortened: as §2
# [12] = tested on: velvetleaf (Abutilon theophrasti); assay: Test G Post-Emergence Protocol; conditions: Abutilon theophrasti, post-emergence, 312 h; for pest or weed control at 15.625 g/ha: 15.625 g ai/ha, evaluated after 13 days (100=total damage to plant; 0=no damage to plant), read-out: Velvetleaf damage rating; for pest or weed control at 62.5 g/ha: 62.5 g ai/ha, read-out: Velvetleaf damage rating (100=total damage to plant; 0=no damage to plant); for pest or weed control at 62.5 g/ha / pest or weed control at 250 g/ha: evaluated after 13 days; for pest or weed control at 250 g/ha: 250 g ai/ha, read-out: damage to plant, Velvetleaf (100=total damage to plant; 0=no damage to plant)
# Procedure, shortened: as §2
SMILES,pest or weed control at 15.625 g/ha [1] [%],pest or weed control at 62.5 g/ha [1] [%],pest or weed control at 250 g/ha [1] [%],plant injury at 15.625 g/ha [2] [%],plant injury at 62.5 g/ha [2] [%],plant injury at 250 g/ha [2] [%],pest or weed control at 15.625 g/ha [3] [%],pest or weed control at 62.5 g/ha [3] [%],pest or weed control at 250 g/ha [3] [%],pest or weed control at 15.625 g/ha [4] [%],pest or weed control at 62.5 g/ha [4] [%],pest or weed control at 250 g/ha [4] [%],pest or weed control at 15.625 g/ha [5] [%],pest or weed control at 62.5 g/ha [5] [%],pest or weed control at 250 g/ha [5] [%],pest or weed control at 15.625 g/ha [6] [%],pest or weed control at 62.5 g/ha [6] [%],pest or weed control at 250 g/ha [6] [%],pest or weed control at 15.625 g/ha [7] [%],pest or weed control at 62.5 g/ha [7] [%],other results
COc1c(Cl)ccc([C@H]2CN(C)C(=O)[C@@H]2C(=O)Nc2cccc(F)n2)c1F (racemic) [Compound 1477],50,60,80,20,40,50,60,80,90,0,0,0,0,0,0,0,0,0,50,60,pest or weed control at 250 g/ha [7]: 60%; plant injury at 15.625 g/ha [8]: 30%; plant injury at 62.5 g/ha [8]: 60%; plant injury at 250 g/ha [8]: 50%; pest or weed control at 15.625 g/ha [9]: 50%; pest or weed control at 62.5 g/ha [9]: 60%; pest or weed control at 250 g/ha [9]: 70%; pest or weed control at 15.625 g/ha [10]: 0%; pest or weed control at 62.5 g/ha [10]: 0%; pest or weed control at 250 g/ha [10]: 0%; pest or weed control at 15.625 g/ha [11]: 0%; pest or weed control at 62.5 g/ha [11]: 0%; pest or weed control at 250 g/ha [11]: 30%; pest or weed control at 15.625 g/ha [12]: 0%; pest or weed control at 62.5 g/ha [12]: 20%; pest or weed control at 250 g/ha [12]: 20%
CN1C[C@@H](c2cncc(F)c2)[C@H](C(=O)Nc2cccc(F)c2F)C1=O (racemic) [Compound 1482],10,30,80,30,40,30,20,60,90,0,0,10,0,0,10,0,0,10,30,30,pest or weed control at 250 g/ha [7]: 60%; plant injury at 15.625 g/ha [8]: 20%; plant injury at 62.5 g/ha [8]: 30%; plant injury at 250 g/ha [8]: 30%; pest or weed control at 15.625 g/ha [9]: 30%; pest or weed control at 62.5 g/ha [9]: 30%; pest or weed control at 250 g/ha [9]: 60%; pest or weed control at 15.625 g/ha [10]: 0%; pest or weed control at 62.5 g/ha [10]: 0%; pest or weed control at 250 g/ha [10]: 0%; pest or weed control at 15.625 g/ha [11]: 0%; pest or weed control at 62.5 g/ha [11]: 0%; pest or weed control at 250 g/ha [11]: 0%; pest or weed control at 15.625 g/ha [12]: 0%; pest or weed control at 62.5 g/ha [12]: 0%; pest or weed control at 250 g/ha [12]: 10%
